GI50 and TGI data for nine compounds are collected here from PubChem BioAssay (NCI).

The structures appear in SMILES notation. Values joined by “and” are separate entries in the source; they are usually repeats but may differ in a detail not shown here. Identical values can stand only once.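 Five compound concentrations were applied to cells in 96-well plates for 48 hours; endpoints were derived by simple linear interpolation of the resulting dose-response curve. GI50 marks 50% less growth. Definition used: TGI = concentration required for complete inhibition of growth.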 Where a SMILES comes first, the peptide text is derived from it. [ ]: non-standard residue; d: D form. The star is where a group is joined. ξ: configuration not given here. X3 = COc1ccc(C(N*)c2ccc(OC)cc2)cc1; NMeF = CN[C@@H](Cc1ccccc1)C(=O)O; NMeD = CN[C@@H](CC(=O)O)C(=O)O; NMeV = CN[C@H](C(=O)O)C(C)C; ξNMeV = CNC(C(=O)O)C(C)C; Boc = CC(C)(C)OC(=O)*; ξNMeA = CNC(C)C(=O)O; ξV = CC(C)C(N)C(=O)O

What all share (test): inhibition of tumour cell growth, NCI panel, 48 h
Assay [1] deals with NCI-H460 lung.
Assay [2] deals with A498 renal.
Assay [3] deals with PC-3 prostate.
Assay [4] has as its system U251 CNS.
In assay [5] the test system is HOP-62 NSCLC.
Assay [6] relates to T-47D breast.
The test system of assay [7] is SF-539 CNS.
Assay [8] deals with HCC-2998 colon.
The subject of assay [9] is ACHN renal.
Assay [10] deals with HOP-92 NSCLC.

For `Nc1ccc(C2=NNC(=O)Cc3cc4c(cc32)OCCO4)cc1Cl`, the GI50 in assay [1] is 1.94 µM; in assay [2] it was 0.944 µM; in assay [3], 7.94 µM; in assay [4] it was 3.68 µM; in assay [5], 5.12 µM; in assay [6], 5.42 µM. The GI50 in assay [7] was 4.15 µM; in assay [8], 3.73 µM; in assay [9] it was 18.8 µM; in assay [10], 4.89 µM. Besides, the TGI in assay [1] is above 50 µM; in assay [2], 19.9 µM; in assay [3], above 50 µM; in assay [4], above 50 µM; in assay [5], above 50 µM; in assay [6], above 50 µM. Moreover, the TGI in assay [7] is 16.8 µM; in assay [8], above 50 µM; in assay [9], above 50 µM; in [10] it was 49 µM.
Regarding `CC(=O)CC(OC(C)=O)C1=CCC2C(CC1C)OC(=O)C2C` (stereo not drawn), the TGI in assay [1], in [2], in [3], in [4], in [5] and in [6] was above 100 µM throughout. Moreover, the TGI in assay [7], in assay [8], in assay [9] and in [10] was above 100 µM throughout.
In the case of `CC1=C2C(=C[C@@](C)(CO)[C@@H]2O)C(=O)[C@](C)(O)C12CC2`, the TGI in assay [1] is 0.00701 µM and 0.0108 µM; in assay [2], 0.0288 µM; in assay [3], 0.0661 µM and 0.0121 µM; in assay [4] it was 0.0243 µM and 0.0794 µM; in assay [5] it was 0.0263 µM and 0.0432 µM; in assay [6] it was 0.0545 µM. In addition, the TGI was 0.0181 µM and 0.0175 µM in [7]; 0.0302 µM and 0.018 µM in assay [8]; 0.0878 µM in assay [9]; 0.061 µM in assay [10]. Besides, the GI50 in assay [9] is 0.0189 µM.
As to `N#CC(C#N)=C/C=C(\Sc1nc2ccccc2s1)c1ccc(Cl)cc1`, the GI50 is 18 µM in assay [1]; 8.26 µM in assay [2]; 6.67 µM in assay [3]; 6.82 µM in [4]; 14 µM in assay [5]; 2.83 µM in assay [7]. The GI50 in assay [8] was 13.8 µM; in assay [9], 4.61 µM; in assay [10], 13.8 µM. The TGI in assay [1] is above 64.9 µM; in assay [2], 28.6 µM; in [3] it was 27.7 µM; in [4], 36.4 µM; in assay [5], 30.5 µM; in assay [6], above 33 µM. Moreover, the TGI is 9.89 µM in assay [7], 29 µM in assay [8], above 35.5 µM in assay [9] and 29.3 µM in [10].
On to `COCCOc1ccc(-c2nc3ccc(-c4nc5ccc(N6CCN(C)CC6)cc5[nH]4)cc3[nH]2)cc1`, for which the GI50 was 3.63 µM in [1]; 1.21 µM in assay [2]; 2.19 µM in assay [3]; 0.659 µM in assay [4]; 1.56 µM in [5]; 1 µM in assay [6]. In addition, the GI50 in [7] was 1.22 µM; in assay [8], 1.78 µM; in [9], 10.7 µM; in [10] it was 2.16 µM. The TGI in assay [1] turned out to be 14.7 µM; in [2] it was 3.39 µM; in [3], 24.5 µM; in [4], 10.2 µM; in assay [5] it was 14.5 µM; in [6], 9.09 µM. In addition, the TGI in assay [7] is 2.83 µM; in [8], 3.77 µM; in assay [9], above 100 µM; in assay [10], 9.71 µM.
Take `CC1(C)OC1COc1c2occc2cc2ccc(=O)oc12` (stereo not drawn): the TGI in [1], in assay [2], in [3], in [4], in assay [5] and in assay [6] was above 100 µM each time. In addition, the TGI in assay [7], in [8], in assay [9] and in assay [10] was above 100 µM throughout.
For `COc1ccc(C(NC(=O)C[C@@H](C(=O)N(C)C(C)C(=O)O)N(C)C(=O)[C@@H]2CCCN2C(=O)[C@H](C(C)C)N(C)C(=O)C(C(C)C)N(C)C(=O)[C@H](Cc2ccccc2)N(C)C(=O)C(NC(=O)OC(C)(C)C)C(C)C)c2ccc(OC)cc2)cc1` (stereo partly drawn) (Boc-[ξV][NMeF][ξNMeV][NMeV]P[NMeD](X3)[ξNMeA]-OH), the GI50 was 17.8 µM in assay [1]; 20.1 µM in [2]; 19.4 µM in assay [4]; 18.5 µM in assay [5]; 22.5 µM in assay [7]; 19.3 µM in [8]. Also, the GI50 in assay [9] is 10.6 µM; in [10] it was 15.8 µM. The TGI in assay [1] is 37.5 µM and 33.3 µM; in assay [2], > 37.5 µM and 35.7 µM; in [3] it was 37.5 µM; in assay [4], 23.6 µM and 35.7 µM; in assay [5], 31.8 µM and 35.5 µM; in assay [6], 36.7 µM. Besides, the TGI in assay [7] is 17.9 µM and 39.8 µM; in assay [8] it was 14.8 µM and 36 µM; in [9], 37.5 µM and 22.5 µM; in [10], 23.8 µM and 29.2 µM.
`C[C@]12CCC3c4ccc(O)cc4CCC3C1CC[C@@]2(O)CNC(=O)/C=C/c1ccc(O)c(O)c1` (stereo partly drawn): the GI50 in assay [1] is 4.9 µM; in assay [2] it was 14.9 µM; in assay [3], 5.65 µM; in assay [4], 3.02 µM; in assay [5], 6.78 µM; in assay [6] it was 6.61 µM. For the same compound, the GI50 in assay [7] is 5.1 µM; in assay [8], 10.8 µM; in [9] it was 2.41 µM; in [10] it was 12.1 µM. Also, the TGI came to 31.6 µM in assay [1]; 29.8 µM in [2]; 22.8 µM in [3]; 10.6 µM in assay [4]; 22.6 µM in assay [5]; 23.9 µM in assay [6]. Moreover, the TGI in assay [7] is 18 µM; in assay [8] it was 23.4 µM; in assay [9], 6.14 µM; in assay [10], 33.6 µM.
For `COc1ccc(CCN=C2NC(=O)/C(=C/c3ccc4ncccc4c3)S2)cc1`, the GI50 in [1] was above 25 µM; in [2], above 18.3 µM; in assay [3], above 25 µM; in assay [4], above 25 µM; in [5], above 25 µM; in assay [6], above 25 µM. For the same compound, the GI50 is above 25 µM in [7], above 25 µM in [8], above 25 µM in assay [9] and above 11.3 µM in assay [10]. Further, the TGI in assay [1], in [2], in assay [3], in [4], in assay [5] and in assay [6] was above 25 µM throughout. The TGI in assay [7], in [8], in [9] and in [10] was above 25 µM each time.
